Reference: US12646011B2, “Methods and nutritional formulations to increase the efficacy and reduce the side effects of cancer treatment” (UNIVERSITY OF SOUTHERN CALIFORNIA, priority 2009, dated 2026)

What was measured:
4T1 breast cancer = conditions: two fasting cycles; 20 days after the last treatment
Description: Short-term starvation (STS), or fasting, was achieved by complete food withdrawal for 48-60 hours with continued access to water. […] Fasting in the glioma model was applied only once due to the unusually rapid tumor growth in the control (ad lib, no chemotherapy) group.
To establish a subcutaneous cancer mouse model, 12 week-old female BALB/c, 12-week-old female and male C57BL/6 mice, and 7-week-old Nude mice were injected with 4T1 breast cancer cells, B16 melanoma and GL26 glioma cells, and ACN human neuroblastoma cells, respectively. For metastatic mouse models of cancer, 12-week-old female BALB/c, 12-week-old female and male C57BL/6 mice were injected intravenously via lateral tail veins with 2×105 4T1, B16, GL26 cells, respectively, and 6-week-old female A/J mice were injected via lateral tail veins with 2×105 NXS2, and 1×10^6 Neuro-2a cells. […] Body weights were determined periodically and tumor size was measured using a digital vernier caliper. Tumor volume was calculated using the following equation: tumor volume (mm3)=(length×width×height)×π/6, where the length, width and height are in mm.
Animals were fasted for a total of 48-60 hours by complete deprivation of food but with free access to water. […] Body weight was measured immediately before and after fasting.

4T1 breast cancer cells = conditions: glucose 0.5 vs 2.0 g/L, 1% FBS
Description: (§3) To determine the mechanisms responsible for this STS-dependent sensitization, the effect of low glucose on DNA single and double strand breaks in cancer cells exposed to chemotherapy by the comet assay was studied.
(§4) Cells were diluted to 10^5/ml in culture medium (DMEM/F12 with 10% FBS), and treated with 50 μM DXR for 1 hour at 37° C. Cells were then washed once with ice cold PBS and subject to CometAssay (Trevigen, Inc, Gaithersburg, MD) according to the manufacturer's recommended procedure. Comet images were acquired with a Nikon Eclipse TE300 fluorescent microscope and analyzed with the Comet Score software (TriTek Corp., ver1.5). 100-300 cells were scored for each genotype/treatment group.

[1] = system: breast cancer cells (4T1); test: In vitro fasting (STS) and chemotherapy, MTT survival, 4T1; format: cell-based, murine; conditions: for sensitization by serum from fasted mice: versus serum from mice fed ad lib, MTT
Description: To model fasting in vitro, cancer cells were incubated in media containing serum collected from mice either fed ad lib or fasted for 48 hours. […] Because pronounced glucose and growth factor reduction (e.g., the 75% reduction in the growth factor IGF-I) are two key extracellular responses to fasting, cells were incubated in different glucose and serum concentrations based on blood glucose measurements from normally fed and fasted mice (FIG. 31), i.e., incubation in low glucose (0.5 g/L) with low serum (1% FBS), or normal glucose (1.0 and 2.0 g/L for human and murine cell lines respectively) with normal serum (10% FBS) for 24 hours before and also during drug treatment (FIG. 32).
4T1-luc murine breast cancer cells were purchased from SibIech (Brookfield, CT). B16-fluc murine melanoma cells were provided by Noah Craft (UCLA). GL26 murine glioma, U87-MG human glioblastoma cells were provided by Thomas Chen (USC). PC3 and 22RV1 human prostate cancer cells were provided by Pinchas Cohen (UCLA). MCF-7 and […] human breast cancer cells and HeLa human cervical cancer cells were provided by Amy Lee (USC). LOVO human colon cancer cells were provided by Darryl Shibata (USC). NXS2 and Neuro-2a murine neuroblastoma, human ACN and SH-SY5Y neuroblastoma, OVCAR human ovarian carcinoma, MZ-MEL human melanoma, A431 epidermoid carcinoma cells were routinely cultured in the Laboratory of Oncology of Gaslini Institute. 4T1 cells were stably transfected with LC3-GFP, which was a kind gift from Jae Jung at USC, for autophagy studies. All cells were routinely maintained in DMEM 10% FBS at 37° C., 5% CO2. To inhibit autophagy cells were treated with 5 μM chloroquine (CQ) for 48 hours during in vitro STS. To modulate HO-1 activity, 4T1 cells were treated with 10 μM hemin (Sigma) or 20 μM zinc protoporphyrin (ZnPP; Sigma) for 24 hours prior to and 24 hours during chemotherapy treatment.
In vitro chemotherapy was performed by treating cells in medium containing chemotherapy for 24 hours. Optimum drug doses were determined for each individual cell line. For in vivo studies, DXR was injected intravenously via lateral tail veins, and CP was injected intraperitoneally.
Cellular fasting was done by glucose and/or serum restriction which was based on blood glucose measurements in fasted and normally fed mice; the lower level approximated to 0.5 g/L. and the upper level to 2.0 g/L. For human cell lines, normal glucose was considered as 1.0 g/L. Cells were washed twice with PBS before changing to fasting medium.
Cytotoxicity was measured by the ability to reduce methylthiazolyldiphenyl-tetrazolium bromide (MTT). Briefly, MTT was prepared at 5 mg/ml in PBS, diluted to a final concentration of 0.5 mg/ml for assays, and incubated for 3-4 hours at 37° C. […] Survival was presented as percentage of MTT reduction level of treated cells to control cells. Absorbance was read at 570 nm using a microplate reader SpectraMax 250 (Molecular Devices) and SoftMax Pro 3.0 software (Molecular Devices).

prostate adenocarcinoma = test: PSA level, cases 3 and 7; format: in vivo, human
Description: A person who was diagnosed in July of 2000 with bilateral prostate adenocarcinoma, Gleason score 7 and PSA level of 5.8 ng/ml. A prostatectomy performed in September of 2000 led to undetectable levels of PSA until January 2003 when it rose to 1.4 ng/ml. Leuprolide acetate together with bicalutamide and finasteride were prescribed. […] Different drugs including triptorelinpamoate, nilutamide, thalidomide, CP and ketoconazole were utilized to control the disease. In 2007 the patient's PSA level reached 9 ng/ml and new metastases were observed during a bone scan. […] After stopping the chemotherapy treatments, their PSA rose rapidly. DTX at 75 mg/m2 in a 3-weekly cycle was the regimen elected and once again the patient suffered significant side effects (FIG. 5). In June 2008, Chemotherapy stopped. The patient was enrolled in a phase III clinical trial with abiraterone acetate, a drug that can selectively block CYP17, a microsomal enzyme that catalyzes a series of reactions critical to nongonadal androgen biosynthesis (Derek Raghavan and Eric A. Klein J.C.O 2008). […] This time the patient opted to fast prior to chemotherapy. […] In agreement to the patient's experience, blood readouts were consistently stable and remained within normal range throughout the treatments (FIGS. 4A-G). During the last three cycles, besides fasting the patient applied testosterone (cream 1%) for five days prior to chemotherapy.
As a consequence the PSA level along with testosterone level increased dramatically.
A person who was diagnosed in July 1998 with prostate adenocarcinoma, Gleason score 8. […] In 1998, the patient received leuprolide acetate and bicalutamide for the first time. In September 1999, those drugs wore off and they were put on finasteride. […] They started the second cycle with leuprolide acetate and also received High Dose Rate (HDR) brachytherapy and external beam radiation with Intensity Modulated Radiation Therapy (IMRT). Complementary treatment with multiple drugs such as bicalutamide, triptorelinpamoate and nandrolone was applied in order to control the disease. However, their PSA level increased quickly each time the treatment was halted. […] The patient decided to fast 60-66 hours prior to and 8-24 hours followed chemotherapy (Table 3).

[2] = Self-reported side effects after chemotherapy (CTC-based survey); format: in vivo, human
Description: Ten cases are described in which patients diagnosed with a variety of malignancies have voluntarily fasted prior to (48-140 hours) and/or following (24-56 hours) chemotherapy. None of these 10 patients, who received an average of 4 cycles of chemotherapy in combination with fasting, reported significant side effects caused by the fasting itself other than hunger. Toxicity was graded based on the Common Toxicity Criteria (CTC) of the National Cancer Institute (NCI) and self-reported side-effects from five patients indicate that fasting may protect against fatigue, weakness, and gastrointestinal side effects.
Self-reported assessments of all 10 patients were obtained to evaluate the severity of the side effects experienced. Since many of the chemo toxic side effects are cumulative, survey data was compared, including all the combined fasting- and non-fasting associated chemotherapy side effects (FIG. 17A). Toxicity was graded based on the Common Toxicity Criteria of National Cancer Institute. Encouragingly, better self-reported health outcomes were addressed by all the patients even though chemo-fasting cycles were mostly carried out in the later portion of the therapy. Nausea, vomiting, diarrhea, abdominal cramps, and mouth sores were virtually absent from the reports of all 10 patients whenever chemo-fasting cycles were administered, whereas at least one of these symptoms was reported by 5 out of the 6 ad lib fed patients (FIG. 17A). The four patients that always fasted in combination with all the chemo-treatments reported low severity for the majority of the side effects (FIGS. 12, 13, 14, 16). Only mild weakness and hair loss were reported by multiple patients. For the 6 patients that received chemotherapy in association with both, fasting or ad lib diet, the severity of the self-reported side effects was determined by considering only the two closest cycle of chemotherapy in which the patient had fasted or not. There was a general and major reduction in the severity of many of the self-reported side effects in combination with fasting (FIG. 17B).

B16 melanoma cells [3] = test: Comet assay, B16; format: cell-based, murine; conditions: glucose 0.5 vs 2.0 g/L, 1% FBS
Description: as §3, §4

[4] = system: murine neuroblastoma (NXS2); test: Metastatic mouse model of neuroblastoma NXS2, survival; format: in vivo; conditions: 16 mg/Kg
GL26 glioma cells = test: Comet assay, GL26; format: cell-based, murine; conditions: glucose 0.5 vs 2.0 g/L, 1% FBS
Description: as §3, §4

B16 melanoma cells [5] = test: Metastatic mouse model of melanoma; format: in vivo
Excerpt: The effect of fasting on chemotherapy was studied in metastatic models generated by intravenous injections of murine breast cancer cells (4T1), melanoma cells (B16), and 2 neuroblastoma cell lines (NXS2 and Neuro-2a) in immunocompetent mice. Fasting potentiated chemotherapy and extended the survival of all mice models of metastatic cancer (FIGS. 24-28). In the metastatic model of melanoma, mice were sacrificed early to determine the effect of STS on metastases. […] For instance, lung metastases were found in 100% vs65% of mice that received DXR under normal feeding and fasting, respectively. In addition, unlike normally fed mice, metastases were not detected in the liver or spleen of fasted mice (FIG. 25).
Body weight was measured immediately before and after fasting.

[6] = system: 17 different cancer cells; test: STS sensitization panel of 17 cancer cell lines, MTT; format: cell-based; conditions: 0.5 g/L glucose, 1% FBS versus normal glucose, 10% FBS
Description: (§1) To model fasting in vitro, cancer cells were incubated in media containing serum collected from mice either fed ad lib or fasted for 48 hours. In agreement with results in mice, breast cancer cells (4T1) cultured in medium supplemented with serum from fasted mice were sensitized to both DXR and CP compared to the effect of incubation in serum from mice fed ad lib (FIG. 30). Because pronounced glucose and growth factor reduction (e.g., the 75% reduction in the growth factor IGF-I) are two key extracellular responses to fasting, cells were incubated in different glucose and serum concentrations based on blood glucose measurements from normally fed and fasted mice (FIG. 31), i.e., incubation in low glucose (0.5 g/L) with low serum (1% FBS), or normal glucose (1.0 and 2.0 g/L for human and murine cell lines respectively) with normal serum (10% FBS) for 24 hours before and also during drug treatment (FIG. 32). In agreement with the in vivo studies, glucose and serum restriction sensitized 15 out of 17 different cancer cells lines, including the murine melanoma (B16), glioma (GL26), and breast cancer (4T1) cells to DXR and/or CP (FIGS. 32-34). […]
(§2) Cytotoxicity was measured by the ability to reduce methylthiazolyldiphenyl-tetrazolium bromide (MTT). […] Absorbance was read at 570 nm using a microplate reader SpectraMax 250 (Molecular Devices) and SoftMax Pro 3.0 software (Molecular Devices).

melanoma (B16) cells = test: In vitro fasting (STS) and chemotherapy, MTT survival, B16; format: cell-based, murine; conditions: rhIGF-I; glucose 0.5 vs 2.0 g/L, 1% FBS; DXR 16 μM
Description: as §1, with “32).” for “32). In agreement with the in vivo studies, glucose and serum restriction sensitized 15 out of 17 different cancer cells lines, including the murine melanoma (B16), glioma (GL26), and breast cancer (4T1) cells to DXR and/or CP (FIGS. 32-34).”
In vitro chemotherapy was performed by treating cells in medium containing chemotherapy for 24 hours. Optimum drug doses were determined for each individual cell line. […]
as §2

[7] = case 7, fasting 60-66 h prior, 8-24 h after

## O=P1(N(CCCl)CCCl)NCCCO1 (stereo not shown) [CP, cyclophosphamide]
4T1 breast cancer
  tumor size relative to CP treatment alone group: less than half
4T1 breast cancer cells
  DNA damage when combined with STS: synergistically increased DNA damage
[1]
  sensitization by serum from fasted mice: sensitized

## CC(=O)O[C@@]12CO[C@@H]1C[C@H](O)[C@@]1(C)C(=O)[C@H](O)C3=C(C)[C@@H](OC(=O)[C@H](O)[C@@H](NC(=O)OC(C)(C)C)c4ccccc4)C[C@@](O)([C@@H](OC(=O)c4ccccc4)[C@H]21)C3(C)C [DTX, docetaxel]
Prostate adenocarcinoma; case 3, 25 mg/m2 weekly, no fasting
  PSA level: 40.6 ng/mL
Prostate adenocarcinoma; case 3, reduced from 34.2, testosterone cream 1% applied before chemotherapy
  PSA after 3 cycles of chemotherapy with fasting: 6.43 ng/mL
Prostate adenocarcinoma; case 3, upon restarting chemo-fasting treatments, 75 mg/m2
  PSA level: dropped immediately
Prostate adenocarcinoma; [7]
  PSA levels throughout the cycles: consistent decreasing trend
[2]; case 3, 75 mg/m2 with fasting, versus previous ad-lib cycles
  self-reported side effects: considerably lower side effects
[2]; case 3, chemotherapy cycles without fasting
  self-reported side effects: fatigue, weakness, metallic taste, dizziness, forgetfulness, short-term memory impairment and peripheral neuropathy
[2]; [7]
  self-reported side effects: almost non-existent except for mild vibratory sensation in their feet

## COc1cccc2c1C(=O)c1c(O)c3c(c(O)c1C2=O)C[C@@](O)(C(=O)CO)C[C@@H]3O[C@H]1C[C@H](N)[C@H](O)[C@H](C)O1 [DXR, doxorubicin]
B16 melanoma cells [3]
  DNA damage when combined with STS: synergistically increased DNA damage
[4]; 2 cycles of fasting
  Long-term survival (over 180 days): 42%
[4]; ad lib group
  mortality: 100%
GL26 glioma cells
  DNA damage when combined with STS: synergistically increased DNA damage
GL26 glioma cells; listed as doxorubicin
  DNA damage when combined with STS: additive
B16 melanoma cells [5]; fasted mice
  metastases in the liver or spleen: not detected
B16 melanoma cells [5]; normal feeding
  mice with lung metastases: 100%
[1]
  sensitization by serum from fasted mice: sensitized
[6]
  cancer cell lines sensitized by STS: 15 out of 17

## C=CC1=C(C)c2cc3[n-]c(cc4nc(cc5[n-]c(cc1n2)c(C)c5C=C)C(C)=C4CCC(=O)O)c(CCC(=O)O)c3C.[Zn+2] [ZnPP, zinc protoporphyrin]
[1]; HO-1 inhibitor, 20 μM, 24 h before and 24 h during CP
  sensitivity to chemotherapy (CP): sensitized cancer cells to chemotherapy

## CCN(CC)CCCC(C)Nc1ccnc2cc(Cl)ccc12 (stereo not shown) [chloroquine]
[1]; 5 μM, 48 hours, glucose restriction in low serum
  cell death on inhibition of autophagy during STS: further increased cell death

## Bevacizumab: Bevacizumab added into the DTX treatment
Prostate adenocarcinoma; case 3, added to weekly DTX treatment
  PSA: dropped significantly

## IGF-I: rhIGF-I, growth factor added during glucose restriction
Melanoma (B16) cells
  effect on STS-dependent sensitization to DXR: reverses the sensitization
[1]; rhIGF-I, glucose 0.5 vs 2.0 g/L, 1% FBS, DXR 16 μM
  effect on STS-dependent sensitization to DXR: reverses the sensitization

## hemin
[1]; HO-1 inducer, 10 μM, 24 h before and 24 h during CP
  fasting-dependent sensitization to chemotherapy (CP): partially reversed
